Columns and labels:
U87MG cells = experiment: Intracranial tumor growth and survival, transduced U87MG cells in Rag-1 mice; assay type: in vivo, human; conditions: single dose BCNU 10 mg/kg iv or TMZ 5 mg/kg ip
Description: (§1) FIG. 12. Antagonists of CD44 are effective therapeutic agents against human GBM in mouse models. A, U87MG and U251 cells were transduced with the retroviruses carrying empty vector and the expression constructs of hsCD44s-Fc, hsCD44v8-v10-Fc, and hsCD44v3-v10 and their serum free cell culture supernatants were collected and analyzed on Western blots using anti-CD44 antibody (Santa Cruz) or anti-human IgG antibody. The molecular weight bars correspond to 199 kDa and 116 kDa. B, 2×10^6 of the transduced U87MG and U251 cells were injected subcutaneously per mouse. Growth rates of the subcutaneous tumors were determined and expressed as the mean of tumor volume (mm^3)+/−SD. Six mice were used for each construct. C, Survival rates of mice following the intracranial injections of transduced U87MG (C-a) and U251 (C-b-c) cells infected with the retroviruses carrying the empty expression vectors, hsCD44s-Fc, hsCD44v8-v10-Fc, hsCD44v3-v10, hsCD44sR41A-Fc, or hsCD44v3-v10R41A-Fc constructs as indicated in the panels. […]
(§2) Mice were used in accordance with the approved IACUC Protocol. […] Following injection, mice were closely monitored and the duration of their survival was recorded. […] Number of surviving mice was recorded. The survival rates were calculated as follows: survival rate (%)=(number of mice still alive/total number of experimental mice)×100%. […]

U251 cells = experiment: Intracranial tumor growth and survival, transduced U251 cells in Rag-1 mice; assay type: in vivo, human; conditions: single dose BCNU 10 mg/kg iv or TMZ 5 mg/kg ip
Description: as §1, §2

O=NN(CCCl)C(=O)NCCCl [BCNU, carmustine]
inhibition of intracranial glioma formation (median survival), drug combined with CD44 knockdown (U87MG cells; intracranial U87MG-Luc depleted of CD44): synergistic inhibition of intracranial glioma formation | inhibitory effect on glioma growth as single agent (U87MG cells; intracranial U87MG-Luc): weak | inhibition of intracranial glioma formation (median survival), drug combined with CD44 knockdown (U251 cells; intracranial U251-Luc depleted of CD44): synergistic inhibition of intracranial glioma formation | inhibitory effect on glioma growth as single agent (U251 cells; intracranial U251-Luc): weak

— US20120207753A1, “METHODS OF USING CD44 FUSION PROTEINS TO TREAT CANCER” (CENTRE HOSPITALIER UNIVERSITAIRE VAUDOIS, priority 2009, published 2012)
